Reference: the NIST ThermoML archive (doi:10.1021/je5003797)
“And” between values parts separate entries of the source, which are not always exact repeats. Equal entries are not always repeated.

Assay: mn = molality of the nth substance listed, in mol/kg
Conditions: 298.15 K, 101 kPa, Liquid

NC=O [formamide] + O
Conditions	mass density
m1 = 0.4985	1000.74 kg/m3
m1 = 0.5096	1000.84 kg/m3
m1 = 0.5191	1000.9 kg/m3
m1 = 0.9969	1004.03 kg/m3
m1 = 1.081	1004.59 kg/m3
m1 = 1.085	1004.61 kg/m3
m1 = 1.499	1007.18 kg/m3 and 1007.2 kg/m3
m1 = 1.5	1007.19 kg/m3
m1 = 1.999	1010.19 kg/m3 and 1010.16 kg/m3
m1 = 2.007	1010.21 kg/m3
m1 = 2.48	1012.92 kg/m3
m1 = 2.488	1012.96 kg/m3
m1 = 2.502	1013.04 kg/m3
m1 = 2.994	1015.72 kg/m3
m1 = 3	1015.76 kg/m3
m1 = 3.002	1015.76 kg/m3
m1 = 3.476	1018.24 kg/m3
m1 = 3.502	1018.39 kg/m3
m1 = 3.535	1018.55 kg/m3
m1 = 3.999	1020.84 kg/m3
m1 = 4.044	1021.08 kg/m3
m1 = 4.137	1021.53 kg/m3
m1 = 4.49	1023.21 kg/m3
m1 = 4.502	1023.26 kg/m3
m1 = 4.505	1023.29 kg/m3
m1 = 5.002	1025.56 kg/m3
m1 = 5.012	1025.61 kg/m3
m1 = 5.067	1025.86 kg/m3
m1 = 5.49	1027.73 kg/m3
m1 = 5.547	1027.97 kg/m3
m1 = 5.575	1028.1 kg/m3
m1 = 5.973	1029.8 kg/m3
m1 = 6.008	1029.91 kg/m3
m1 = 6.01	1029.95 kg/m3
m1 = 6.497	1031.91 kg/m3
m1 = 6.503	1031.93 kg/m3
m1 = 6.51	1031.98 kg/m3
m1 = 6.99	1033.87 kg/m3
m1 = 7.004	1033.94 kg/m3
m1 = 7.056	1034.12 kg/m3
m1 = 7.468	1035.69 kg/m3
m1 = 7.481	1035.75 kg/m3
m1 = 7.493	1035.75 kg/m3
m1 = 7.99	1037.61 kg/m3
m1 = 8.002	1037.64 kg/m3
m1 = 8.037	1037.77 kg/m3
m1 = 8.468	1039.27 kg/m3
m1 = 8.506	1039.42 kg/m3
m1 = 8.522	1039.45 kg/m3
m1 = 8.947	1040.93 kg/m3
m1 = 8.99	1041.07 kg/m3
m1 = 9.032	1041.2 kg/m3
